From patent publication US7115666B2, “Nitrone compounds, pharmaceutical compositions containing the same and methods for treating inflammation and neuropathic pain” (Renovis, Inc., priority 2002, dated 2006)
“Also recorded” adds a separate entry of the source.

Legend:
[1] = test system: Taxol-induced neuropathic pain model in mice; assay: Taxol-induced neuropathic pain model, mechanical allodynia (von Frey filament); format: in vivo
From the text: Taxol is a chemotherapeutic reagent for treatment of cancer patients. Cancer patients under Taxol chemotherapy can develop neuropathic pain, with a symptom of severe mechanical allodynia, so that a light touch (non-noxious stimulus in a normal condition) becomes painful. […] Recent studies have shown that Taxol is involved in TNF-alpha release in microglia cells. As one of the clinically relevant models, Taxol-induced neuropathic pain was developed in mice and rats. It is believed that small-diameter high threshold nociceptive C-fibers in the peripheral sensory nervous systems are largely, if not exclusively, affected in the Taxol-induced neuropathic pain models.
In this series of experiments, five-week old, male C57B1/6 mice were purchased from Charles River and housed at the Renovis animal facility in South San Francisco. Mice were trained for one week in an enclosure made of Plexiglas with dimensions of 2 in×2.5 in×3.5 in (W, H, and L) with a meshed metal support. The baseline of response to mechanical stimulus was measured using a von Frey Filament (0.6 g=3.84 mN). Normally, the baseline response is between 0 to 40%.
Taxol was dissolved (1 mg/ml) in 50% Cremophor EL and 50% alcohol, and freshly diluted with saline to the final concentration of 0.2 mg/ml in 10% Cremophor EL, 10% alcohol. Mice were administered Taxol at 1 mg/kg of body weight, via i.p. daily, while the animals of the control group received vehicle (10% Cremophor EL and 10% alcohol in saline).
Animals receiving this daily dose of Taxol will develop neuropathic pain. The mechanical allodynia was measured at day 7, 8, or 14 after Taxol administration.
A quantity of 200 mg of compound 14 (Example 14) was dissolved in 0.4 ml of 100% DMSO to yield a concentration of 500 mg/ml, and was kept at 4° C. until use. Methylcellulose was dissolved in deionized-distilled water to yield a concentration of 1%. The freshly prepared meythlcellulose was used to make a suspension of the compound, 10 mg of compound in 2.5% DMSO (V/V) and 1% methylcellulose. The suspension was sonicated for 6 min with a 5 second interval every 30 seconds before administration to animals.
A quantity of 50 mg/kg (body weight) compound or vehicle (2.5% DMSO and 1% methylcellulose), 100 μl/20 g (body weight) was given to animals via gavage feeding procedure in a randomized, blinded fashion. The animals were then placed in the enclosure for assay. Mechanical allodynia was measured with von Frey filament (0.6 g=[…]) at various times after administration.
Referring to FIG. 5, baseline in the group of animals was measured as 25+/−4% (n=24, ±SEM) before induction of neuropathic pain with Taxol (or sham treatment), where the response was measured with a von Frey filament (0.6 g=3.84 mN) as the percent of trials a withdrawal response is observed after probing with the filament. The higher the percentage, the greater the inferred pain.
Sixteen animals were treated with Taxol daily to induce neuropathic pain. Mechanical allodynia was assayed at day 8; average withdrawal response was measured as 81±5% (n=16, ±SEM). Sixteen animals were treated with matching vehicle to create sham animals. The Taxol and sham animals were then separated randomly into two groups of 8 animals each for drug vs. vehicle testing. Withdrawal responses to a von Frey filament probe were measured at 1, 6, 24, and 72 hours post-administration of drug or vehicle control, and averaged for each animal. […] Negative values reflect a reduction in inferred pain.
For mouse neuropathic pain studies, C57B1/6 strain, five-weeks old male mice were obtained from Charles River, San Diego, Calif. A total of 120 mice were used for the studies. 4 mice per cage were housed under standard conditions with 12-hour light and 12-hour dark cycles (in Renovis, Inc, South San Francisco facility). For rat neuropathic pain studies, male Sprague-Dawley rats, with body weights ranging from 180–200 grams, were obtained from Harlan. A total of 42 rats were used for this study. […]

[2] = test system: spinal nerve ligation model (Chung model); assay: Spinal nerve ligation (Chung) model, mechanical allodynia; format: in vivo, rats; details: 25 mg/kg single dosing via i.p.; von Frey filaments
Description: Compound 14 and Compound 23 were prepared for i.p. administration as follows. 250 mg/ml of each of the compounds to be tested, was dissolved in a mixture of Cremophor EL/alcohol (90:10) (volume:volume), respectively, by brief sonication on ice, followed by further 10-fold dilution in saline solution (9% Cremophor EL; 1% ETOH and 90% saline) to give a final concentration of 25 mg/ml. before injection. 1 ml/kg (body weight) of compound solution was administered via i.p. to rats, to yield a dose of 25 mg/kg. 180–200 grams of body weight, male, Sprague-Dawley rats from Harlan were used. They were housed under the standard housing conditions and trained for 1 week before measurement of the baseline. The rats were prepared in the manner described in Example V, above, by i.p. admininstration of Taxol. The spinal nerve ligation surgery was performed as described by Kim & Chung (Kim, S. O., and Chung, J. M., An experimental model for peripheral neuropathy produced by segmental spinal nerve ligation in rat. Pain. 1992; 50:355–363.). The development of neuropathic pain was measured using 50% of threshold measurement using von Frey filaments. […] Generally speaking, the mechanical allodynia in spinal nerve ligation model rats fell in the range of 1–4 grams of the paw withdrawal threshold. The results of the tests are set forth in FIG. 8 and are summarized in the last two rows of Table III.

[3] = Taxol/mice, P.O., Single dosing, 50 Mg/Kg body weight

Row | Molecule | time postdosing of analgesic effect ([1]; 50 mg/kg single dose via oral gavage) | effect on mechanical allodynia (Taxol-induced pain) ([1]; 50 mg/kg single dose via oral gavage, von Frey filament 0.6 g, measured 1, 6, 24, up to 48 or 72 hours postdosing) | Effective time Hour post dosing [1, 3] [h] | extent of block of mechanical allodynia [1, 3] | effect on mechanical allodynia (paw withdrawal threshold) [2]
1 | N-tert-butyl-C-(4-phenylpropyl)nitrone [Compound 14] | up to 24 hour | inhibits mechanical allodynia; also recorded: significant reduction of mechanical allodynia; also recorded: activity preventing Taxol-induced pain | ~24 | block | significant analgesic effects over control; also recorded: attenuate mechanical allodynia
2 | COc1ccc(CCCC=[N+]([O-])C(C)(C)C)cc1 [Compound 23] |  |  |  |  | significant analgesic effects over control; also recorded: attenuate mechanical allodynia
